Results reported in US10538742B2, “Methods and means related to cancer stem cells” (Cambridge Enterprise Limited, priority 2004, dated 2020).

What was measured:
MCF-7 cells = experiment: Treatment of MCF-7 cells with gamma secretase inhibitor, SP quantitated; format: cell-based, human; details: 10 uM reserpine during SP analysis
Protocol: FIG. 10A-10D illustrates the results of a screen for anti-cancer stem cell activity using the MCF-7 cancer cell line. MCF-7 cells were incubated with 1 uM gamma secretase inhibitor (Calbiochem, San Diego, catalog number 565750) for 7 days (B, D). Control cells were cultured without a gamma secretase inhibitor (A, C). Following drug treatment, cells were washed, and then the SP was analyzed as described herein, in the presence (C, D) or absence (A, B) of 10 uM reserpine. The percentage of SP cells in the culture is given for each experimental condition.
MCF-7 cells were cultured in serum-containing media, as described above. Cells were harvested from the cultures, washed, and resuspended in gamma secretase inhibitor I. Gamma secretase inhibitor I was purchased from Calbiochem™ (San Diego, Calif.; Catalog number 565750). The gamma secretase inhibitor was added to the cultures at a final concentration of 1 uM. Cells were treated for 7 days, and the SP was quantitated as described.
The invention includes methods for evaluating compounds for anti-cancer stem cell activity by monitoring the SP cell population of a cancer cell line. In this experiment, MCF-7 cells were treated with a gamma secretase inhibitor, as described above. […] Therefore, gamma secretase inhibitors could affect cancer stem cells expressing the Notch protein. […]

B104 neuroblastoma cells = experiment: SP analysis by Hoechst 33342 flow cytometry, B104 neuroblastoma cells; format: cell-based, rat; details: 50 μM verapamil during Hoechst 33342 labeling
Protocol: (§1) To identify and isolate the SP cells in the cancer cell lines, the lines were cultured as described above, in either FCS or serum-free culture medium with bFGF, PDGF, or both. The cells were removed from the culture dish with trypsin and EDTA GIBCO BRL), washed, suspended at 10^6 cells per ml in DMEM containing 2% FCS (staining medium), and preincubated in 1.5-ml Eppendorf tube at 37° C. for 10 min. The cells were then labeled in the same medium at 37° C. for 90 min with 2.5 μg/ml Hoechst 33342 dye (Molecular Probes), either alone or in combination with 50 μM verapamil (Sigma), which is an inhibitor of some (verapamil-sensitive) ABC transporters (Goodell, M. A. (1996) J. Exp. Med. 183 1797-1806.). Finally, the cells were counterstained with 1 μg/ml propidium iodide to label dead cells. Then, 3-5×10^4 cells were analyzed in a FACSVantage fluorescence-activated cell sorter (Becton Dickinson) by using dual-wavelength analysis (blue, 424-444 nm; red, 675 nm) after excitation with 350-nm UV light. Propidium iodide-positive dead cells (15%) were excluded from the analysis. In the case of the C6 cell line, the SP cells or non-SP cells were sorted and cultured in serum-free culture medium with bFGF and PDGF.
(§2) They were then analyzed by flow cytometry. […] No SP cells were detected in the two human osteosarcoma lines (U-20S and SaOS-2).

HeLa carcinoma cells = experiment: SP analysis by Hoechst 33342 flow cytometry, HeLa carcinoma cells; format: cell-based, human; details: 50 μM verapamil during Hoechst 33342 labeling
Protocol: as §1, §2

MCF7 breast cancer cells = experiment: SP analysis by Hoechst 33342 flow cytometry, MCF7 breast cancer cells; format: cell-based, human; details: 50 μM verapamil during Hoechst 33342 labeling
Protocol: as §1, §2

C6 glioma cells = experiment: SP analysis by Hoechst 33342 flow cytometry, C6 glioma cells; format: cell-based, rat; details: 50 μM verapamil during Hoechst 33342 labeling
Protocol: as §1, §2

MCF7 cells = experiment: MCF7 SP cell expansion in serum-free medium with growth factors; format: cell-based, human; details: growth factor 10 ng/ml, 7 days, in FCS less than 0.8%
Protocol: The cells were cultured in FCS (A) or serum-free medium with bFGF (B), EGF (C), or both (D) for 7 days and were analyzed by flow cytometry. The SP is outlined and shown as a % of the total cell population.
(§3) The cells were cultured in DMEM, supplemented with 10% FCS, 100 units/ml penicillin G, and 100 μg/ml streptomycin (GIBCO). In some experiments, C6 cells were cultured in serum-free DMEM containing 10 μg/ml bovine insulin, 100 μg/ml human transferrin, 100 μg/ml BSA, 60 ng/ml progesterone, 16 μg/ml putrescine, 40 ng/ml sodium selenite, 63 μg/ml N-acetylcysteine, 5 μM forskolin, 50 units/ml penicillin, and 50 μg/ml streptomycin (GIBCO), as well as one or both of 10 ng/ml bFGF and 10 ng/ml PDGF, or one or both of bFGF (10 ng/ml) and EGF (10 ng/ml).
MCF7 Cell Expansion MCF7 cells were cultured in 10% FCS (FIG. 7A) or in serum-free culture medium with bFGF (FIG. 7B), EGF (FIG. 7C), or both (FIG. 7D) for 7 days. […] Cells were stained with Hoechst dye and analyzed by flow cytometry. When cultured in FCS, less than 0.8% of the cells are SP cells. By contrast, when cultured in serum-free medium with bFGF, EGF or both, 5.1%, 3.5%, or 6.2% of the cells, respectively, are SP cells.

C6 cells = experiment: C6 SP cell expansion in serum-free medium with bFGF and PDGF; format: cell-based, rat; details: 10 ng/ml growth factor, up to 3 weeks
Protocol: as §3
To identify and isolate the SP cells in the cancer cell lines, the lines were cultured as described above, in either FCS or serum-free culture medium with bFGF, PDGF, or both. […] Then, 3-5×10^4 cells were analyzed in a FACSVantage fluorescence-activated cell sorter (Becton Dickinson) by using dual-wavelength analysis (blue, 424-444 nm; red, 675 nm) after excitation with 350-nm UV light. […]
The cells were stained with Hoechst 33342 and analyzed by flow cytometry. […]
To investigate the individual roles of PDGF and bFGF in expanding C6 SP cells, C6 cells were cultured in either bFGF or PDGF for 2 weeks and then in bFGF plus PDGF for an additional 2 weeks. The cells were then stained with Hoechst 33342 and analyzed by flow cytometry. […]

With `COC(=O)[C@H]1[C@H]2C[C@@H]3c4[nH]c5cc(OC)ccc5c4CCN3C[C@H]2C[C@@H](OC(=O)c2cc(OC)c(OC)c(OC)c2)[C@@H]1OC` [reserpine] the “SP in the presence of reserpine” value (MCF-7 cells) was “no SP is visible”.
`COc1ccc(CCN(C)CCCC(C#N)(c2ccc(OC)c(OC)c2)C(C)C)cc1OC` (stereo not drawn) [verapamil] was tested, and the “SP (side population) on treatment with verapamil” value (from here on “SP (side population) on treatment”) (B104 neuroblastoma cells) was “decreased greatly”, the “SP (side population) on treatment” value (HeLa carcinoma cells) was “decreased greatly” and the “SP (side population) on treatment” value (MCF7 breast cancer cells) was “decreased greatly”. For the same compound, the “SP (side population) on treatment” value (C6 glioma cells) was “decreased greatly”.
“EGF: recombinant cytokine added to serum-free medium at 10 ng/ml” was tested, and the “% of the cells that are SP cells” value (MCF7 cells) was 3.5%.
For PDGF, the “SP cells maintained or detected in culture” value (C6 cells) was “few SP cells could be detected”.
With “bFGF: basic fibroblast growth factor, recombinant cytokine purchased from PeproTech” the “SP cells maintained or detected in culture” value (C6 cells) was “few SP cells could be detected” and the “% of the cells that are SP cells” value (MCF7 cells) was 5.1%.
